In this test the test system is 292921-168-R-J2-PDC spheroids with HUVEC/MSC, viability. The experiment in a line: Anticancer human tumor 292921-168-R-J2-PDC patient-derived pancreatic carcinoma cell line growth inhibition [TAK]. The settings on record: for viability, T/C: stronger effect = lower value. An excerpt: Combinatorial screen of targeted agents with TAK-243 and ipatasertib in multi-cell type tumor spheroids
A high-throughput screen of multi-cell type tumor spheroids was designed to identify active combinations of targeted small molecules and TAK-243 or ipatasertib. Complex spheroids include a stromal component modeled by human endothelial cells (HUVEC) and fibroblasts modeled by human mesenchymal stem cells (MSCs). The concentration ranges selected for each drug and investigational agent were based upon clinically achievable concentrations if the clinical Cmax of the agent was known.
Compounds. The drugs and investigational agents: TAK-243 (785004), ipatasertib (767898), everolimus (733504), selumetinib (741078), bortezomib (756655), trametinib (758246), ixazomib (758254), vemurafenib (761431), dabrafenib (764134), sapanisertib (764658), alpelisib (765974), and copanlisib (816437), were obtained from the National Cancer Institute (NCI) Developmental Therapeutics Program Chemical Repository. The FDA-approved anticancer drug set is available from the NCI Developmental Therapeutics Program. […] The stock solutions were prepared in dimethyl sulfoxide (DMSO, Sigma-Aldrich, St. Louis, MO, cat. D2650) at 800-fold the tested concentration and stored at -70 degrees C prior to their use. All drugs and investigational agents were tested over a range starting from a high concentration at or near the clinical Cmax and decreasing in half-log increments. If the clinical Cmax for an agent had not been determined, the highest concentration tested was 10 microM.
NCI60 Cell Culture. NCI60 cell lines were obtained from the NCI Developmental Therapeutics Program Tumor Repository. For each lot of cells, the Repository performed Applied Biosystems AmpFLSTR Identifiler testing with PCR amplification to confirm consistency with the published Identifier STR profile for each cell line. Cells were kept in continuous culture for no more than 20 passages. The optimal seeding densities for each of the cell lines at each time point assessed were determined prior to performing the concentration response studies. Briefly, the NCI60 human tumor lines were grown as monolayers in RPMI 1640 medium supplemented with 10% FBS and 2 mmol/L L-glutamine.
An additional 2 lines were from the NCI60 cell line panel including melanomas, MALME-3M and SK-MEL-2. Pooled donor human umbilical vein endothelial cells (HUVEC, Lonza, cat. CC-2519) and human mesenchymal stem cells (hMSC, Lonza, cat. PT-2501) were purchased from Lonza (Walkersville, MD).
PDMR cell lines were grown in complete medium (DC medium): Dulbecco's modified Eagle's medium (DMEM)/F12 supplemented with 5% fetal bovine serum (FBS), 2 mM L-glutamine, 100 U/mL penicillin and 100 µg/ml streptomycin, 0.4 µg/ml hydrocortisone, 10 ng/ml epidermal growth factor (EGF) recombinant human protein, 24 µg/mL adenine, and 0.1 mg/mL primocin. During culture from frozen stock vials, PDMR cells were cultured in the same medium containing 10 µM Y-27632 (see Table 3). The PDCs were cultured in complete DMEM/F12 media without 10 microM Y-27632 dihydrochloride for at least two passages prior to the screen. The pooled donor HUVEC and hMSC were cultured in endothelial cell growth medium 2 (PromoCell, Heidelberg, Germany, cat. C-22011) and mesenchymal stem cell growth medium 2 (PromoCell, cat. C-28009), respectively. For all experiments, HUVEC and hMSC were used at passages </=5.
For the pre-screen, cell seeding densities were determined from a titration spanning the range from 5,000 to 313 cells per well. The mct-spheroids including 60% malignant cells, 25% HUVEC and 15% MSC dispensed as a mixture into U-bottom Ultra-Low Attachment 384-well plates (Corning, NY)
High-throughput Drug Combination Screening.
Prior to their inoculation into 384-well plates, malignant cells, HUVEC, and hMSC were removed from T flasks using TrypLE express (Thermo Fisher Scientific, cat. 12605036) and harvested by centrifugation for 5 min at 233 x g. […]

Each structure is given as a SMILES string. Several values for one entry are separate records, joined by “and”; a condition that tells them apart may be missing. Identical values can stand only once. Some results are limits rather than exact numbers.

Broadly, the viability, T/C is the result in the treated group divided by that in the control group, in per cent. What is called IC50 is the point on the concentration scale where inhibition reaches its midpoint.
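Also: spheroids exposed to drugs for seven days before readout.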

`CC(=O)Nc1cccc(-n2c(=O)n(C3CC3)c(=O)c3c(Nc4ccc(I)cc4F)n(C)c(=O)c(C)c32)c1`: the viability, T/C (compound 94.9 pM) was 91.6% and 97.1%; the viability, T/C (compound 0.0003 µM) was 58.9% and 67.7%; the viability, T/C (compound 0.000949 µM) is 36.9% and 48.5%; the viability, T/C (compound 0.003 µM) was 25.6% and 25.7%; the viability, T/C (compound 0.00949 µM) is 17.6% and 20.3%; the viability, T/C (compound 0.03 µM) is 11.1%. Moreover, the IC50 (curve of compound) was 0.00049 µM and 0.000767 µM.

Turning to `CC(C)(C)c1nc(-c2cccc(NS(=O)(=O)c3c(F)cccc3F)c2F)c(-c2ccnc(N)n2)s1`, the viability, T/C runs as follows: (compound 0.0316 µM) 109% and 122%; (compound 0.1 µM) 117% and 139%; (compound 0.316 µM) 111% and 110%; (compound 1 µM) 85% and 84.2%; (compound 3.16 µM) 62.5% and 67.1%; (compound 10 µM) 34% and 30.9%. Also, where the note is “curve of compound”, the IC50 was 4.98 µM.

On to `CC(C)CC(NC(=O)C(Cc1ccccc1)NC(=O)c1cnccn1)B(O)O` (stereo unspecified), for which the viability, T/C (compound 31.6 pM) is 99.4% and 103%; the viability, T/C (compound 0.0001 µM) is 102%; the viability, T/C (compound 0.000316 µM) was 104% and 107%; the viability, T/C (compound 0.001 µM) is 96.7% and 104%; the viability, T/C (compound 0.00316 µM) is 88.3% and 74.9%; the viability, T/C (compound 0.01 µM) was 7.89% and 7.64%. In addition, the IC50 (curve of compound) is 0.00546 µM and 0.00485 µM.

Consider `CC(C)CC(NC(=O)CNC(=O)c1cc(Cl)ccc1Cl)B1OC(=O)CC(CC(=O)O)(C(=O)O)O1` (stereo unspecified), for which the viability, T/C was 99.7% and 104% (compound 0.000316 µM); 107% and 92.5% (compound 0.001 µM); 105% and 99.2% (compound 0.00316 µM); 107% and 102% (compound 0.01 µM); 37.5% and 35.4% (compound 0.0316 µM); 11.4% and 6.93% (compound 0.1 µM). Moreover, the IC50 (curve of compound) was 0.0255 µM and 0.0244 µM.

As for `CC(C)NCC(C(=O)N1CCN(c2ncnc3c2C(C)CC3O)CC1)c1ccc(Cl)cc1` (stereo unspecified), the viability, T/C reads like this: (compound 0.3 µM) 87.8% [middle of 10 runs]; (compound 0.949 µM) 83% [middle of 10 runs]; (compound 3 µM) 77.3% [middle of 10 runs]; (compound 9.49 µM) 62.3% [middle of 10 runs]; (compound 30 µM) 42.4% [middle of 10 runs]. Further, the IC50 (compound alone, run of 02/20/2020) amounted to 18.8 µM.

`CC(C)n1nc(-c2ccc3oc(N)nc3c2)c2c(N)ncnc21`: the viability, T/C reads like this: (compound 0.000316 µM) 101% and 103%; (compound 0.001 µM) 87.1% and 91%; (compound 0.00316 µM) 75.5% and 74.6%; (compound 0.01 µM) 61.5% and 58.3%; (compound 0.0316 µM) 40.3% and 43%; (compound 0.1 µM) 31.9% and 32.7%. In addition, the IC50 (curve of compound) is 0.0193 µM and 0.0186 µM.

As to `CCCS(=O)(=O)Nc1ccc(F)c(C(=O)c2c[nH]c3ncc(-c4ccc(Cl)cc4)cc23)c1F`, the viability, T/C (compound 0.316 µM) was 113% and 128%; the viability, T/C (compound 1 µM) was 117% and 127%; the viability, T/C (compound 3.16 µM) was 108% and 113%; the viability, T/C (compound 10 µM) is 55.1% and 67.5%; the viability, T/C (compound 31.6 µM) was 99.6% and 62.3%; the viability, T/C (compound 100 µM) is 80% and 94.5%. In addition, the IC50 (curve of compound) was greater than 100 µM.

Regarding `COC1CC2CCC(C)C(O)(O2)C(=O)C(=O)N2CCCCC2C(=O)OC(C(C)CC2CCC(OCCO)C(OC)C2)CC(=O)C(C)C=C(C)C(O)C(OC)C(=O)C(C)CC(C)C=CC=CC=C1C` (stereo unspecified), the viability, T/C reads like this: (compound 0.000316 µM) 83.9% and 83.3%; (compound 0.001 µM) 76.6% and 71.4%; (compound 0.00316 µM) 71.5% and 66.5%; (compound 0.01 µM) 64.1% and 59%; (compound 0.0316 µM) 59.8% and 64.2%; (compound 0.1 µM) 59.2% and 62.3%. The IC50 (curve of compound) is greater than 0.1 µM.

With `COc1c(OCCCN2CCOCC2)ccc2c3n(c(=NC(=O)c4cnc(N)nc4)nc12)CCN3`, the viability, T/C (compound 0.00316 µM) was 74.5% and 83.2%; the viability, T/C (compound 0.01 µM) was 43.7% and 51.3%; the viability, T/C (compound 0.0316 µM) is 28.2% and 30.1%; the viability, T/C (compound 0.1 µM) was 14.5% and 16.6%; the viability, T/C (compound 0.316 µM) was 10.4% and 12.4%; the viability, T/C (compound 1 µM) was 8.83% and 11.2%. Besides, the 50% inhibitory concentration (IC50) (curve of compound) was 0.00815 µM and 0.0109 µM.

Turning to `Cc1nc(NC(=O)N2CCCC2C(N)=O)sc1-c1ccnc(C(C)(C)C(F)(F)F)c1` (stereo unspecified), the viability, T/C is 97.9% and 99.8% (compound 0.0316 µM); 78.4% and 71.1% (compound 0.1 µM); 61.5% and 55.7% (compound 0.316 µM); 44.4% and 38.9% (compound 1 µM); 30.1% and 28.9% (compound 3.16 µM); 20.4% and 22.4% (compound 10 µM). Moreover, the IC50 (curve of compound) was 0.672 µM and 0.422 µM.

Consider `Cn1cnc2c(F)c(Nc3ccc(Br)cc3Cl)c(C(=O)NOCCO)cc21`, for which the viability, T/C is, setting by setting: (compound 0.00949 µM) 57.2% and 47.3%; (compound 0.03 µM) 40.2% and 34.1%; (compound 0.0949 µM) 33.8% and 27.4%; (compound 0.3 µM) 31% and 24.2%; (compound 0.949 µM) 25.6% and 21.6%; (compound 3 µM) 15.3% and 11.8%. Besides, the IC50 (curve of compound) is 0.0158 µM and < 0.00949 µM.

The record behind these values is PubChem BioAssay AID2060357 (Molecular Pharmacology Branch, DTP, NCI, 2025).
